Patent US8318746B2, “Nitrogen-containing five-membered heterocyclic compound” (Takeda Pharmaceutical Company Limited, priority 2007, dated 2012)

Columns and labels:
[1] = target: T1, GST-hLGK1 (GST added to the amino terminal of human liver GK) (Homo sapiens, UniProt P35557); experiment: Measurement of GK activation value; format: biochemical; details: test compound final concentration 10 μmol/L; reaction rate divided by that of control group (50% DMSO without test compound); Mant-ATP substrate, D-glucose, 37° C., 60 min
T1 construct: with a BamHI site added to immediately before the initiation codon; made in house; host or cells: Escherichia coli BL21 (Stratagene), plasmid pGEX6P-2/hLGK1
T1 sequence (P35557 1-464 isoform P35557-3): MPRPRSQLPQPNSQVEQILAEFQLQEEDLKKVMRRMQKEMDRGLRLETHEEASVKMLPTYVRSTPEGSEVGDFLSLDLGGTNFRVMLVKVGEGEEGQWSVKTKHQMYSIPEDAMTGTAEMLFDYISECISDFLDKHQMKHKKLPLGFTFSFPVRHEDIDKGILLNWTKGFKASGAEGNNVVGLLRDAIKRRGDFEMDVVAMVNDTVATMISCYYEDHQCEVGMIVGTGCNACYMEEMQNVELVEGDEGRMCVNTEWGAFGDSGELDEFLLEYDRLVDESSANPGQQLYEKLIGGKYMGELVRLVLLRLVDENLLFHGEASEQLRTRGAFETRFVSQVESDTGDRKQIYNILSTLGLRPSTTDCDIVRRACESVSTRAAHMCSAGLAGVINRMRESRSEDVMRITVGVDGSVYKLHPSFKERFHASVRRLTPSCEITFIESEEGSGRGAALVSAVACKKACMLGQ
Method: To each well of a 384-well black plate (Nalge Nunc International K.K.) was added 5 μL of 50% dimethyl sulfoxide solution containing test compound diluted to 100 μmol/L. Then, GST-hLGK1 obtained in Reference Example 2A was diluted with measurement buffer (containing 50 mM HEPES (pH 7.4), 200 mM KCl, 5 mM MgCl2, 2.5 mM DTT and 50 μM 2′-(or-3′)—O—(N-methylanthraniloyl) adenosine 5′-triphosphate (Mant-ATP) (Jena BioScience)) to 6 μg/mL and 35 μL thereof was added to each well.
Each well was stood at 37° C. for 10 min, 25 mM D-glucose solution (10 μL) was added to start the reaction. The final concentration of the test compound was 10 μmol/L.
Each, well after the reaction was stood at 37° C. for 60 min, and the reaction was quenched by adding 25 μL of a quenching solution (containing 200 mM HEPES (pH 7.4), 20 mM MgCl2, 200 mM EDTA, 0.03% Triton-X 100, 0.3% Coating 3 reagent (Caliper Life Sciences, Inc.)).
2′-(or-3′)-O-(N-methylanthraniloyl)adenosine 5′-triphosphate (Mant-ATP, substrate) and Mant-ADP (reaction resultant product) were separated from each well after the reaction by a microchip type capillary electrophoresis apparatus 250 HTS (Caliper Life Sciences, Inc.). The reaction rate [(reaction resultant product peak height)/(reaction resultant product peak height+substrate peak height)×100(%)] was calculated from the ratio of the substrate peak height and reaction resultant product peak height obtained by fluorescence detection (excitation wavelength 355 nm, measurement wavelength 460 nm) and used as the index of GK activity.
As a control group, the reaction rate was calculated in the same manner as above except that “solution in 50% dimethyl sulfoxide (without test compound)” was used instead of “solution of test compound in 50% dimethyl sulfoxide”.
The reaction rate of the well (test compound addition group) added with the test compound was divided by the reaction rate of the control group and the obtained percentage was taken as the GK activation value (Emax) of the test compound.

melting point | Emax at 10 µM [1] | Structure (SMILES)
127 to 129 °C | 155% | CCS(=O)(=O)CCNCc1cnc(-c2ccc(C(CC3CCOCC3)c3ccc(S(=O)(=O)C4CC4)cc3)[nH]2)s1.Cl (stereo not drawn) [Example 160, N-{[2-(5-{1-[4-(cyclopropylsulfonyl)phenyl]-2-(tetrahydro-2H-pyran-4-yl)ethyl}-1H-pyrrol-2-yl)-1,3-thiazol-5-yl]methyl}-2-(ethylsulfonyl)ethanamine hydrochloride]
 | 129% | O=S(=O)(c1ccc(C(CC2CCOCC2)c2ccc(-c3nnc(CN4CC(O)C4)s3)[nH]2)cc1)C1CC1 (stereo not drawn) [Example 227, 1-{[5-(5-{1-[4-(cyclopropylsulfonyl)phenyl]-2-(tetrahydro-2H-pyran-4-yl)ethyl}-1H-pyrrol-2-yl)-1,3,4-thiadiazol-2-yl]methyl}azetidin-3-ol]
 | 145% | O=S(=O)(c1ccc(C(CC2CCOCC2)c2ccc(-c3nnc(CN4CCOCC4)s3)[nH]2)cc1)C1CC1 (stereo not drawn) [Example 228, 4-{[5-(5-{1-[4-(cyclopropylsulfonyl)phenyl]-2-(tetrahydro-2H-pyran-4-yl)ethyl}-1H-pyrrol-2-yl)-1,3,4-thiadiazol-2-yl]methyl}morpholine]
152 to 153 °C | 152% | O=S(=O)(c1ccc(C(CC2CCOCC2)c2ccc(-c3ccc(Cn4cncn4)cn3)[nH]2)cc1)C1CC1 (stereo not drawn) [Example 237, 2-(5-{1-[4-(cyclopropylsulfonyl)phenyl]-2-(tetrahydro-2H-pyran-4-yl)ethyl}-1H-pyrrol-2-yl)-5-(1H-1,2,4-triazol-1-ylmethyl)pyridine]
